Test results taken from patent US20230003715A1, “AZAPODOPHYLLOTOXIN DERIVATIVES AND METHODS OF TREATING LYMPHOMA AND KIDNEY CANCER” (The Board of Trustees of the Leland Stanford Junior …, priority 2019, published 2023).

Experiments:
[1] = test system: human RCC A498 cell line; test: Proliferation / viability of human RCC A498 cell line; assay type: cell-based; settings: for reduction in viability / suppression: 70 nM, 48 hours, human RCC A498; for SAR analysis: relative activity: RCC cell lines, substitution on C-4 phenyl ring
Text: (§1) A 50 microliter volume of cells was taken from the culture medium and combined with an equal volume of 0.4% Trypan blue stain. Then, 10 microliters of this 1:1 mixture was pipetted onto a slide and placed into a hemocytometer for cell counting. The viable cell count was used for measuring cell proliferation in the sample.
To further expand the structure activity relationship (SAR), six additional AZP derivatives were synthesized: AR-02, AR-03, AR-038, AR-051, AR-061 and AR-065, with different substituents on the C-4 phenyl ring (FIG. 1). Having validated that exemplary AZP compounds show efficacy in our murine-derived RCC line, it was sought to determine if this finding could be relevant in human RCC line, A498. Exemplary compound NSC750212 and newly synthesized analogues were tested in A498 cell line (FIG. 3).

[2] = test system: murine RCC E28 cells; test: Proliferation of murine RCC E28 cells (viable cell count); assay type: cell-based; settings: for sensitivity of MYC-driven RCC line to compound: 140 nM and 70 nM
Text: In addition, murine renal cell carcinoma E28 cell line was used in this study. These cells were maintained in DMEM supplemented with 10% (vol/vol) FBS, 1% glutamine, 1% sodium pyruvate, 1% non-essential amino acids, and Antibiotic-Antimycotic.
as §1
Activity of compounds NSC750212, NSC750719, NSC750722, and NSC756089 (see, FIG. 1) was investigated on a MYC-driven RCC line derived from a transgenic mouse model using low dose ranges of 280 nM, 140 nM, and 70 nM. […] FIG. 2, illustrates the results of treatment of murine RCC E28 cells with, from left to right: DMSO and corresponding AZP derivatives at concentrations of 70 nM, 140 nM and 280 nM. Even at 70 nM, NSC750212 causes about 90% reduction of cell proliferation compared to the vehicle control (DMSO).

[3] = test system: CCRF (T lymphoblast); test: Proliferation of lymphoma line CCRF; assay type: cell-based, human
Text: (§2) Human T-cell acute lymphoblastic leukemias CCRF, DND-41, KOPT-K1, human B-cell Burkitt's lymphoma P493-6, and murine lymphoma 6780 were used in this study. Human and mouse lymphomas were all maintained in RPMI supplemented with 10% (vol/vol) FBS, 1% glutamine, 1% sodium pyruvate, 1% non-essential amino acids, and Antibiotic-Antimycotic. All cell culture reagents used were obtained from Gibco (Thermo Fisher Scientific Inc.).
as §1
(§3) Activity of exemplary compounds against lymphomas was also investigated. […] FIG. 4 illustrates proliferative responses of various human lymphoma lines, from left to right: CCRF, DND-41, KOPR, and MYC-driven lymphoma lines P493 and 6780, at doses of 70 nM, 140 nM, and 280 nM vs a control (DMSO). […] KOPT and P-493 still show a significant but much less suppression, at roughly 85%. At 140 nM, CCRF and 6780 show an increase in suppression at roughly 92% and 94%, respectively.

[4] = test system: DND-41 (child T lymphoblastic leukemia); test: Proliferation of lymphoma line DND-41; assay type: cell-based, human
Text: as §2, §1, §3

[5] = test system: KOPT-K1 (human T-ALL); test: Proliferation of lymphoma line KOPT-K1; assay type: cell-based
Text: as §2, §1, §3

[6] = test system: human B-cell Burkitt's lymphoma P493-6; test: Proliferation of MYC-driven lymphoma line P493-6; assay type: cell-based; settings: P-493
Text: as §2, §1, §3

[7] = test system: murine lymphoma 6780; test: Proliferation of MYC-driven lymphoma line 6780; assay type: cell-based
Text: as §2, §1, §3

[8] = test system: human RCC A498 xenografts; test: Human RCC A498 xenograft in NSG mice; assay type: in vivo; settings: intratumoral treatment for a week, vs DMSO control
[9] = test system: human MYC-driven Burkitt Lymphoma line P493 xenografts; test: Human lymphoma P493 xenograft in NSG mice; assay type: in vivo; settings: intratumoral treatment for a week, vs DMSO control
[10] = test system: bovine tubulin; test: Tubulin Polymerization Assay (EMD Millipore); assay type: biochemical; settings: compared to positive control Nocodazole and negative control Paclitaxel
Experimental: The Tubulin Polymerization Assay (EMD Millipore) was used to confer the mechanism of azapodophyllotoxin derivatives. The polymerization reaction was conducted in a 96-well plate. Paclitaxel was used as the non-tubulin-inhibiting negative control, and Nocodazole was used as the tubulin-inhibiting positive control. First, a solution of 99% pure bovine tubulin stock solution in 1× polymerization buffer (PB) containing 1 mM GTP was made. Second, a 1:9 mixture of each drug and control with PB-GTP solution was also prepared. In each well, 60 microliters of the first solution (99% tubulin solution in 1×PB and 1 mM GTP) was combined with 60 microliters of one of each of the prepared 1:9 drug to PB-GTP solutions. All solutions were prepared on ice prior to combining and placement into the spectrophotometer. Tubulin assembly was measured through turbidity variation (light scattering) in the spectrophotometer every 30 seconds at 350 nm (with shaking in between each reading) over the course of 90 minutes.
Given the structure of NSC750212 and computational docking studies of Azapodophyllotoxins in general, it has been stipulated that they may target tubulins. Using EMD Millipore Tubulin Polymerization Assay, NSC750212 was compared to a negative control, Paclitaxel, and a positive control, Nocodazole, to determine whether its mechanism is via the inhibition of tubulin polymerization.

[11] = test system: tubulin; test: Nano-fluidic proteomic immunoassay (NIA) of tubulin in treated tumors; assay type: in vivo, human
Experimental: NIA was performed using the ProteinSimple Nanopro 1000 machine. The final protein concentration loaded into each nano-fluidic capillary of the machine was 0.1 ug/uL. The primary antibody for Tubulin (Cell Signaling Technologies) was diluted 1:100. The primary antibody for HSP70 (Santa Cruz Biosciences) was diluted 1:500. The secondary anti-rabbit and anti-mouse HRP-conjugates were both diluted 1:100. Chemiluminescence signal was recorded after the addition of the detection reagent, which consists of a 1:1 ratio of luminol and peroxide. Analysis of the chemiluminescence data from NIA was performed via the ProteinSimple Compass software.
Fine needle aspirations (FNAs) are defined to be biopsies performed via the aspiration of the tumor using a needle of […] or smaller. Core biopsies are any biopsies done using a needle larger than […]. Techniques for performing FNAs and core biopsies are similar. The needle tip is plunged into the tumor and retracted, in a fast and repetitive motion, while applying suction at the needle tip. […]
To investigate if this mechanism is consistent in vivo, we used the Nano ImmunoAssay to analyze core biopsies and fine needle aspirates (FNA) of tumors during the course of treatment with NSC750212. […] There are no other charged isoforms of tubulin detected by NIA (FIG. 7, panel D).

[12] = test system: monoglycerols; test: DESI-MSI of monoglycerols in treated RCC; assay type: in vivo, mouse; settings: primary MYC-driven RCC, upon termination of treatment
Text: DESI-MSI functions by directing a pneumatically assisted solvent electrospray onto the surface of interest (Takats, Wiseman, Gologan, & Cooks, 2004). The electrosprayed solvent droplets dissolve certain chemical constituents off the surface investigated and also induce the formation of secondary charged-droplets that take off from the surface. These secondary droplets already contain constituents of the sample and produce molecular ions of the analytes upon evaporation in the atmospheric pressure interface of the mass spectrometer. This way, electrospray-like mass spectrometric information is obtained on the sample, featuring multiply charged ions and solvent adducts among other electrospray-specific spectral features.
Though we expected a complete depletion of metabolism upon tubulin inhibition by NSC750212, our DESI-MSI analyses uncover a more interesting mechanism. […] Monoglycerol metabolism has been implicated in cancer, due to the high need of cancer cells of energy and building blocks. […] As described herein, DESI-MSI is a valuable tool for use in uncovering the mechanism of action of exemplary azapodophyllotoxin derivatives.

O=C1OCC2=C1C(c1cccc(Br)c1)c1cc3c(cc1N2CCO)CCC3 (centres unmarked) [AR-038]
reduction in viability / suppression [1]: 90% | SAR analysis: relative activity [1]: promising activity

COc1cc(C2C3=C(COC3=O)N(CCO)c3cc4c(cc32)CCC4)cc(OC)c1OC (centres unmarked) [NSC750212]
reduction of cell proliferation compared to the vehicle control (DMSO) ([2]; 70 nM, 48 hours): about 90% | suppression of proliferation when compared to 70 nM ([2]; 140 nM, 48 hours): two-fold | sensitivity of MYC-driven RCC line to compound ([2]; 280 nM): very high sensitivity | efficacy at higher concentration than 140 nM ([2]; 280 nM, 48 hours): no further efficacy | reduction in viability / suppression [1]: 95% | SAR analysis: relative activity [1]: most active | reduction in proliferation ([3]; 70 nM, vs control (DMSO)): ~90% | suppression of proliferation ([3]; 140 nM): roughly 92% | suppression of proliferation ([3]; 280 nM): about 96% | dose response ([3]; 70, 140, 280 nM): dose-dependent response | maximal dose (maximally effective dose) [4]: 70 nM | reduction in proliferation ([4]; 70 nM): ~95% | change in suppression vs 70 nM ([4]; 140 nM): no dose response | suppression of proliferation ([5]; 70 nM): roughly 85% | suppression of proliferation ([5]; 140 nM): roughly 87% | reduction of proliferation ([5]; 280 nM): roughly 89% | dose response ([5]; 70, 140, 280 nM): dose-dependent response | suppression of proliferation ([6]; 70 nM): roughly 85% | reduction in proliferation ([6]; 140 nM): over 90% | suppression of proliferation ([6]; 280 nM): ~98% | dose response ([6]; 70, 140, 280 nM): dose-dependent response | reduction in proliferation ([7]; 70 nM): ~90% | suppression of proliferation ([7]; 140 nM): ~94% | suppression of proliferation ([7]; 280 nM): maximal suppression | dose response ([7]; 70, 140, 280 nM): dose-dependent response | tumor burden [8]: significant reduction in tumor burden | tumor burden [9]: significant reduction in tumor burden | inhibition of tubulin polymerization (turbidity at 350 nm over 90 minutes) [10]: more efficacious than Nocodazole | lowered levels of tubulin expression vs control ([11]; core biopsy of tumor during treatment): at least two-fold | lowered levels of tubulin expression vs control ([11]; fine needle aspirate (FNA) of tumor during treatment): at least two-fold | levels of monoglycerols compared to untreated RCC [12]: elevated levels of monoglycerols

COc1cccc(C2C3=C(COC3=O)N(CCO)c3cc4c(cc32)CCC4)c1 (centres unmarked) [NSC750719]
sensitivity of MYC-driven RCC line to compound ([2]; 280 nM): very high sensitivity

COc1cccc(C2C3=C(COC3=O)N(CCO)c3cc4c(cc32)OCCO4)c1 (centres unmarked) [NSC750722]
sensitivity of MYC-driven RCC line to compound ([2]; 280 nM): very high sensitivity
